Assay: xn = mol fraction of the nth substance listed
Settings: Liquid, Bellows volumetry

CCCC [butane] + CCC
mass density [kg/m3]
Settings	280 K	300 K	320 K	340 K	360 K	380 K	400 K	420 K	440 K
1000 kPa, x2 = 0.2729	578.83	–	528	–	–	–	–	–	–
1000 kPa, x2 = 0.5021	563.28	537.32	–	–	–	–	–	–	–
1000 kPa, x2 = 0.7308	546.41	–	–	–	–	–	–	–	–
2000 kPa, x2 = 0.2729	580.29	–	530.61	–	467.01	–	–	–	–
2000 kPa, x2 = 0.5021	564.88	539.48	511.85	479.55	–	–	–	–	–
2000 kPa, x2 = 0.7308	548.19	–	489.94	–	–	–	–	–	–
3000 kPa, x2 = 0.2729	581.81	–	533.12	–	472.48	–	–	–	–
3000 kPa, x2 = 0.5021	566.5	541.56	514.73	483.91	445.79	–	–	–	–
3000 kPa, x2 = 0.7308	550.07	–	493.41	–	409.73	–	–	–	–
5000 kPa, x2 = 0.2729	584.56	–	537.8	–	481.94	–	398.7	–	–
5000 kPa, x2 = 0.5021	569.65	545.62	519.99	491.54	458.29	415.53	–	–	–
5000 kPa, x2 = 0.7308	553.51	–	499.74	–	428.83	–	–	–	–
10000 kPa, x2 = 0.2729	591.21	–	548.01	–	499.9	–	441.29	–	365.44
10000 kPa, x2 = 0.5021	576.66	554.42	531.57	506.78	480.01	449.59	415.12	374.84	–
10000 kPa, x2 = 0.7308	561.23	–	512.85	–	456.8	–	383.18	–	–
20000 kPa, x2 = 0.2729	602.5	–	564.4	–	524.51	–	481.03	–	435.74
20000 kPa, x2 = 0.5021	588.96	569.12	549.41	528.92	507.83	485.35	462.03	438.42	414.16
20000 kPa, x2 = 0.7308	574.44	–	532.72	–	488.73	–	440.67	–	389.82
30000 kPa, x2 = 0.2729	612.44	–	577.65	–	542.33	–	505.41	–	469.11
30000 kPa, x2 = 0.5021	599.33	581.32	563.54	545.35	527.21	508.03	488.88	469.92	451.25
30000 kPa, x2 = 0.7308	585.33	–	547.73	–	509.86	–	470.45	–	431.31
40000 kPa, x2 = 0.2729	621.14	–	588.82	–	556.62	–	523.61	–	492.08
40000 kPa, x2 = 0.5021	608.38	591.53	575.17	558.59	542.25	525.24	508.28	491.93	475.9
40000 kPa, x2 = 0.7308	594.97	–	560.18	–	526.15	–	491.38	–	458.02
50000 kPa, x2 = 0.2729	628.91	–	598.52	–	568.47	–	538.25	–	509.82
50000 kPa, x2 = 0.5021	616.39	600.55	585.24	569.82	554.89	539.26	523.78	509	494.74
50000 kPa, x2 = 0.7308	603.42	–	570.96	–	539.49	–	507.84	–	478.11
60000 kPa, x2 = 0.2729	635.9	–	607.13	–	578.91	–	550.71	–	524.44
60000 kPa, x2 = 0.5021	623.79	608.7	594.24	579.76	565.84	551.17	536.84	523.17	510.12
60000 kPa, x2 = 0.7308	611.1	–	580.28	–	550.83	–	521.54	–	494.23
70000 kPa, x2 = 0.2729	642.5	–	614.83	–	588.2	–	561.45	–	537.02
70000 kPa, x2 = 0.5021	630.58	616.01	602.33	588.57	575.48	561.44	548.1	535.32	523.11
70000 kPa, x2 = 0.7308	618.12	–	588.77	–	561.04	–	533.25	–	507.76
80000 kPa, x2 = 0.2729	648.79	–	622.08	–	596.65	–	571.06	–	547.99
80000 kPa, x2 = 0.5021	636.93	622.84	609.65	596.66	584.07	570.85	558.01	546.03	534.41
80000 kPa, x2 = 0.7308	624.55	–	596.34	–	570.01	–	543.56	–	519.7
90000 kPa, x2 = 0.2729	654.49	–	628.57	–	604.5	–	579.66	–	557.71
90000 kPa, x2 = 0.5021	642.73	629.02	616.63	603.93	592.03	579.23	567.04	555.52	544.56
90000 kPa, x2 = 0.7308	630.61	–	603.52	–	578.24	–	552.92	–	530.16
100000 kPa, x2 = 0.2729	659.68	–	634.85	–	611.65	–	587.69	–	566.67
100000 kPa, x2 = 0.5021	648.26	635.14	623.18	610.72	598.96	587	575.06	564.2	553.96
100000 kPa, x2 = 0.7308	636.39	–	610.01	–	585.56	–	561.28	–	539.53
120000 kPa, x2 = 0.2729	669.67	–	646.16	–	624.31	–	601.92	–	582.31
120000 kPa, x2 = 0.5021	658.24	646	634.71	622.95	612.34	600.73	589.51	579.48	569.97
120000 kPa, x2 = 0.7308	646.6	–	621.8	–	599.05	–	576.29	–	556.04
140000 kPa, x2 = 0.2729	678.58	–	656.29	–	635.59	–	614.15	–	595.88
140000 kPa, x2 = 0.5021	667.41	655.77	644.69	634.01	623.77	612.71	602.26	592.86	583.79
140000 kPa, x2 = 0.7308	656.14	–	632.64	–	610.8	–	589.3	–	570.27
160000 kPa, x2 = 0.2729	686.88	–	665.5	–	645.73	–	625.33	–	607.79
160000 kPa, x2 = 0.5021	675.8	664.45	654.03	643.77	634.07	623.67	613.48	604.42	596.12
160000 kPa, x2 = 0.7308	664.71	–	642.48	–	621.39	–	600.76	–	582.77
180000 kPa, x2 = 0.2729	694.53	–	673.94	–	654.77	–	635.3	–	618.69
180000 kPa, x2 = 0.5021	683.54	672.59	662.68	652.74	643.46	633.32	623.72	615.03	606.9
180000 kPa, x2 = 0.7308	672.47	–	651.07	–	630.95	–	611.22	–	593.99
200000 kPa, x2 = 0.2729	701.52	–	681.74	–	663.07	–	644.44	–	628.49
200000 kPa, x2 = 0.5021	690.83	680.14	670.56	660.89	652.2	642.49	632.92	624.5	616.83
200000 kPa, x2 = 0.7308	679.87	–	659.14	–	639.82	–	620.55	–	604.14

Reference: the NIST ThermoML archive (doi:10.1016/j.jct.2007.06.014)
